“Also recorded” adds a separate entry of the source.
B1: modified SNX7 minigene (version 2): SNX7 minigene modified to reduce size and eliminate peptide expression in the absence of LMI070; tested in plasmid DL182 (nucleic acid)
DNA: GAAGAAGAAGATATCAAGTTAGCATTTACAGATTTGGCTGAGGAGAAGAACAGGTAATTAGTGTTGTTTGATATTGCTTCATTTTAAAGTTATTTGCTCATTTAGCATTTGATATTGCTTTCTATTGATTGTCCTAACTACTCCTCTTTCCTCTCCCTTCTCCATTTTTGAAGAGTTTGCAAAGGAAGGAAAGGAGCAGAGACTTGATTGAGCAGAAAATCATTTCAGGGCCTGTTCTCTATTGTCCTTGCTATCCTGTCTTCTGTAGCTATCTGAAACCATCAACAAAGGAGCACACCATGGCATCAGCAAAAGAGTAACAACATCTTTTTTTAAGTTCATTTTGTTTTTCAGTTGATTGTATTTCAATTTTTTTACAGCTGACTTTTCTCAGAGAAGTTTTTTTTTTATTGTAAACATACTTTTTCTAGAAAGTATATTTTAAAATAACATCTTTAACCTTATCTCTGGCTGAATTATTGAATATTTGAAATTATTACATTAACAAAATTTTGTCTTACAGCAGTGGTCCCCAACCTTCTTAGCAGTAGCATCCCTCATTAAGAATTAAAATTTGTAGAAATTGACAAGGATTCTGACAAGCTGTTGGGAGAGAAGAATAGAGCAGATTGCAGTAGGAACAGTTGTGTTAGAATTTATTAATCCTTTAACACTGAAAGTAAACTATTGTTGATTGCCTCTTGGTGTGTTTCCATTATTCAGTGCTCTTGCTAAGTGGGAGTCATTCCTTACATCAACCACCAACCTTCACTTGGAAGAAGCTAGCGAAGATAAACCT

Experiments:
[1] = tested on: SNX7 minigene exon B inclusion in primary rat neurons; assay: RNA splicing analysis by qPCR in pJSNX-GFP transfected primary rat neurons; assay type: cell-based
Experimental: Primary rat neurons were prepared from dissected rat embryo cortices digested with papain and cultured in complete Neurobasal media in 24-well poly-D-Lysine plates (Corning) at density 150,000 cells/well for 7 days. Half of the media was replaced with fresh media day before transfection. Each well was transfected with 2 ug of pJSNX-GFP plasmid DNA using Lipofectamine2000 (Invitrogen) according to manufacturer's protocol, except cells were washed three times with optiMEM before adding DNA-liposomes cocktails. Transfection media was replaced with conditioned media containing 50% fresh complete Neurobasal media 4 hours later. Next day, 1 mM stock of LMI070 in DMSO was diluted in 1/1,000-1/500,000 in DMEM to achieve concentrations 2 nm-1 uM when added to the cells. Control cells received 0.1% DMSO. GFP expression was evaluated 6 days post transfection using fluorescent microscope. […] For RNA splicing analysis, total RNA was extracted from cells using Trizol (Invitrogen) according to manufacturer's protocol. cDNA was synthesized using Superscript III 1st strand supermix for qRT-PCR (Invitrogen). Inclusion of exon B was evaluated using qPCR by measuring amounts of exonB-exonC amplified by […] […] Amounts of constitutively spliced RNA (i.e. exonA-exonC) was measured using […] […]

[2] = tested on: ssAAV9 hPGRN with SNX7 switch (version 1) in mouse brain; assay: Dose response of hPGRN expression in mouse brain after oral LMI070 (ssAAV9 SNX7 switch version 1, TR-FRET); assay type: in vivo, FVB mice
Experimental: (§1) ssAAV9 viral vector encoding hPGRN under control of synapsin promoter with SNX7 switch (version 1) was produced in HEK293 cells and purified by iodixanol. 2e10vg of AAV vector in 2 uL was injected ICV in FVB neonatal mice at P0. At 4 weeks of age, 3, 10 or 30 mg/kg of LMI070 or vehicle control was administered orally through gavage. 6-7 mice per group were taken down at specified time points (FIG. 8A). After transcardial perfusion with PBS posterior half of the left hemisphere was homogenyzed in Precellys tube. TR-FRET assay was used for measurement of human PGRN expressed from AAV vector. Sample of human cortex was used as a control for physiological PGRN levels (˜200 pg/mg).

[3] = tested on: ssAAV9 hPGRN with SNX7 switch (version 1) in mouse brain; assay: Time course of hPGRN expression in mouse brain after oral LMI070 (ssAAV9 SNX7 switch version 1, TR-FRET); assay type: in vivo; conditions: C57Bl/6 mice
Experimental: as §1, with “C57Bl/6” for “FVB”, “age,” for “age, 3, 10 or”, “4-6” for “6-7”, “7A).” for “8A).”, “[…] The transgenic protein expression returned to untreated” for “Sample of human cortex was used as a control for physiological PGRN”, “after 4 days post LMI070 administration (FIG. 7B).” for “(˜200 pg/mg).”

[4] = tested on: pSyn-snx7-PGRN (SNX7 switch) in primary rat neurons; assay: hPGRN expression by TR-FRET assay in pSyn-snx7-PGRN transfected primary rat neurons; assay type: cell-based; conditions: 100 nm LMI070, 6 days post transfection
Experimental: (§2) Primary rat neurons were prepared from dissected rat embryo cortices digested with papain and cultured in complete Neurobasal media in 24-well poly-D-Lysine plates (Corning) at density 150,000 cells/well for 7 days. Half of the media was replaced with fresh media day before transfection. […] Transfection media was replaced with conditioned media containing 50% fresh complete Neurobasal media 4 hours later. Next day, 1 mM stock of LMI070 in DMSO was diluted in 1/10,000 in DMEM to achieve concentrations 100 nm when added to the cells. Control cells received 0.01% DMSO. hPGRN expression was measured 6 days post transfection using TR-FRET assay. In pSyn-snx7-PGRN transfected cells, expression of hPGRN was induced by LMI070 more than 30 times comparing to DMSO-treated control (FIG. 6B). For RNA splicing analysis, total RNA was extracted from cells using Trizol (Invitrogen) according to manufacturer's protocol. cDNA was synthesized using Superscript III 1st strand supermix for qRT-PCR (Invitrogen). Inclusion of exon B was evaluated using qPCR by measuring amounts of exonB-exonC junction amplified by […] (SEQ ID NO: 103) and GCGGTTGCGAGGTTTATCT (SEQ ID NO: 104) primers pair as compared to total transgene mRNA amplified by primers specific to exon C, GCGGTTGCGAGGTTTATCT (SEQ ID NO: 104) and […] (SEQ ID NO: 105). […] Amounts of constitutively spliced RNA (i.e. exonA-exonC) was measured using […] […]

[5] = tested on: pJSNX-GFP (SNX7 minigene ON-switch) in HEK293 cells; assay: GFP expression from SNX7 minigene ON-switch in HEK293 cells (fluorescent microscope, FACS); assay type: cell-based, human; conditions: LMI070 2 nm-1 uM, 48 hours post transfection, vs DMSO
Experimental: (§3) HEK293 cells were maintained in complete DMEM media and seeded in 24-well plate at 100,000 cells per well densite day before transfection. Each well was transfected with 2 ug of pJSNX-GFP plasmid DNA using Lipofectamine2000 (Invitrogen) according to manufacturer's protocol. Transfection media was replaced with complete DMEM 4 hours later. Initial 1 mM stock of LMI070 in DMSO was diluted in 1/1,000-1/500,000 in DMEM to achieve concentrations 2 nm-1 uM when added to the cells in 24 hours later. Control cells received 0.1% DMSO. GFP expression was evaluated 48 hours post transfection using fluorescent microscope. […] For quantitative analysis of GFP expression, cells were trypsinized and analyzed by FACS using SONY SH-800 flow cytometer. Mean fluorescence intensity was used for relative measurement of GFP expression. […] For RNA splicing analysis, total RNA was extracted from cells using Trizol (Invitrogen) according to manufacturer's protocol. cDNA was synthesized using Superscript III 1st strand supermix for qRT-PCR (Invitrogen). Inclusion of exon B was evaluated using qPCR by measuring amounts of exonB-exonC amplified by […] […] Amounts of constitutively spliced RNA (i.e. exonA-exonC) was measured using […] […]

[6] = tested on: SNX7 minigene exon B inclusion in HEK293 cells; assay: RNA splicing analysis by qPCR in pJSNX-GFP transfected HEK293 cells; assay type: cell-based, human
Experimental: as §3

[7] = tested on: SNX7 minigene exon B inclusion in primary rat neurons; assay: RNA splicing analysis by qPCR in pSyn-snx7-PGRN transfected primary rat neurons; assay type: cell-based; conditions: 100 nm LMI070
Experimental: as §2

[8] = tested on: SNX7 minigene switch in HEK293 cells; assay: Comparison of SNX7 switch version 1 and version 2 in HEK293 cells in response to LMI070; assay type: cell-based, human; conditions: HEK293, plasmid DL182 (version 2) vs DL180 (version 1), LMI070 100 nm-1 uM, 48 hours post transfection
Experimental: The modified SNX7 minigene (version 2) was inserted into a scAAV vector using molecular cloning techniques. The sequence of the vector comprising the modified SNX7 minigene (version 2) is shown in SEQ ID NO: 95. HEK293 cells were maintained in complete DMEM media and seeded in 24-well plate at 100,000 cells per well densite day before transfection. Each well was transfected with 2 ug of plasmid DNA DL180 containing SNX7 switch version 1 or plasmid DL182 containing SNX7 version 2 using Lipofectamine2000 (Invitrogen) according to manufacturer's protocol. Transfection media was replaced with complete DMEM 4 hours later. Initial 1 mM stock of LMI070 in DMSO was diluted in 1/1,000-1/500,000 in DMEM to achieve concentrations 100 nm-1 uM when added to the cells in 24 hours later. Control cells received 0.1% DMSO. GFP expression was evaluated 48 hours post transfection using fluorescent microscope.

| Molecule | Inclusion of exon B, upregulated as compared to DMSO-treated cells ([1]; 31 nM LMI070) | exonA-exonC splicing, lower as compared to control DMSO-treated cells ([1]; 500 nM LMI070) [times] | transgene expression in brain vs LMI070 dose ([2]; FVB mice, 3, 10 or 30 mg/kg LMI070 orally) | accumulation of transgenic hPGRN in the brain (time course) ([2]; FVB mice, ssAAV9 ICV at P0, 3, 10 or 30 mg/kg LMI070 orally at 4 weeks) | time after which transgenic protein expression returned to untreated levels ([3]; 30 mg/kg LMI070 orally) [days] | hPGRN expression in the brain post LMI070 administration (time course) ([3]; ssAAV9 ICV at P0, 30 mg/kg LMI070 orally at 4 weeks) | expression of hPGRN induced, comparing to DMSO-treated control [4] | GFP expression (mean fluorescence intensity) [5] | Inclusion of exon B (exonB-exonC vs total transgene mRNA), upregulated as compared to DMSO-treated cells ([6]; HEK293, 125 nM LMI070) [times] | exonA-exonC splicing, lower as compared to control DMSO-treated cells ([6]; HEK293, 1 uM LMI070) [times] | Inclusion of exon B, upregulated as compared to DMSO-treated cells [7] | exonA-exonC splicing, lower as compared to DMSO-treated cells [7] [times] | sensitivity of minigene switch in response to LMI070 (GFP expression) [8] |
| --- | --- | --- | --- | --- | --- | --- | --- | --- | --- | --- | --- | --- | --- |
| CC1(C)CC(Oc2ccc(-c3ccc(-c4cn[nH]c4)cc3O)nn2)CC(C)(C)N1 [LMI070, 5-(1H-Pyrazol-4-yl)-2-(6-((2,2,6,6-tetramethylpiperidin-4-yl)oxy)pyridazin-3-yl)phenol] | more than 100 times | 30 | dose response; also recorded: switches on transgene expression in mouse brain in dose-dependent manner | rapid (12 hours post LMI070 administration) accumulation of transgenic hPGRN in the brain, which starts to decline at 24 hour point | 4 | rapid and transient induction of hPGRN expression in the brain after 24 hours post LMI070 administration; also recorded: switches on transgene expression in mouse brain in time-dependent manner | more than 30 times | dose-dependent increase in GFP expression | 75 | 60 | more than 150 times | 10 |  |
| B1 |  |  |  |  |  |  |  |  |  |  |  |  | more sensitive than the previous version |
